The numbers were not newly measured in US20050060811A1, “Fabric care article and method for conserving energy” (The Procter & Gamble Company, priority 2000, published 2005), which cites them from elsewhere.

Settings in the first series: not given
Consider `ClC=CC[N+]12CN3CN(CN(C3)C1)C2.[Cl-]` [Dowicil 200, 1-(3-Chlorallyl)-3,5,7-triaza-1-azoniaadamantane chloride], for which the “solubility in water” value is reported as “freely soluble in water”.

Staying with this series, now noted: in water.
`CC1(C)C(=O)N(CO)C(=O)N1CO` [DMDM hydantoin, 1,3-bis(hydroxymethyl)-5,5-dimethyl-2,4-imidazolidinedione]: the water solubility entry is given as “more than 50%”.
Regarding `OCCOc1ccccc1` [2-phenoxyethanol], the water solubility entry is given as “about 2.67%”.
Turning to `[H]/N=C(\N/C(=N/[H])NCCCCCCNC(=N)NC(=N)Nc1ccc(Cl)cc1)Nc1ccc(Cl)cc1` [chlorhexidine digluconate, 1,1′-hexamethylene bis(5-(p-chlorophenyl)biguanide)], the water solubility entry is given as “about 70%”.
On to `[Na+].[O-][n+]1ccccc1[S-]` [sodium pyrithione], for which the water solubility entry is “about 50%”.
For `CC(C)(O)C(Cl)(Cl)Cl` [chlorobutanol, 1,1,1-Trichloro-2-methylpropan-2-ol], the water solubility entry is “about 0.8%”.
In the case of `OCc1ccccc1` [benzyl alcohol], the water solubility entry is given as “about 4%”.
Turning to `O=[N+]([O-])C1(Br)COCOC1` [Bronidox L, 5-bromo-5-nitro-1,3-dioxane], the water solubility entry was “about 0.46%”.
As for `[H]/N=C(\N/C(=N/[H])NCCCCCCNC(=N)NC(=N)Nc1ccc(Cl)cc1)Nc1ccc(Cl)cc1` [chlorhexidine diacetate, 1,1′-hexamethylene bis(5-(p-chlorophenyl)biguanide)], the water solubility entry is listed as “about 1.8%”.
As for `OCCc1ccccc1` [2-phenylethanol], the water solubility result is “about 2%”.
`O=[N+]([O-])C(Br)(CO)CO` [Bronopol, 2-bromo-2-nitropropane-1,3-diol]: the water solubility entry was “about 25%”.
